According to patent US20250332081A1, “A Composition Against Osmotic Stress” (ELC Management LLC, priority 2022, published 2025):

Tested on: Normal Human Epidermal Keratinocytes (NHEK)
Assay: Hyper-osmotic stress model in NHEKs: cell protection (alamarBlue viability) and combination index
Format: cell-based
Details: 48 hrs, hyper-osmotic stress 450 mOsm
Procedure: 1.2 g betaine (RDS 51-6709) was dissolved in 100 ml water with magnetic stirring for complete dissolution (Stock concentration 1.2%). 0.5 g Roselle extract (Hibiscus Sabdariffa Extract, Lucas Meyer Cosmetics Company) was dissolved in 10 mL water to achieve 5% stock solution. Then the solutions were filtrated with 0.22 um filter to keep sterile.
Normal Human Epidermal Keratinocytes (NHEK, FC-0007) purchased from Lifeline Cell Technology were incubated at 37° C., 95% humidity and 5% CO2 in keratinocyte cell culture medium (DermaLife K Keratinocyte Medium Complete Kit, LL-0007, Lifeline cell technology) supplemented with growth factors and 1% Penicillin/Streptomycin (Thermo Fischer, Waltham, MA, USA). Cells were passaged upon reaching 80% confluency.
NHEKs were plated in 96-well plates at 4,000/well density. After 24 h of incubation, the cells would have reached ˜80% confluency. 4.38 mg/mL NaCL was added in the culture media to achieve 450 osmolarity, on top of a baseline ˜300 mOsm.
On day 1, NHEKs were seeded with culture medium (DermaLife K Keratinocyte Medium Complete Kit) in a 96-well plate at 3,000 cells/well. After 24 h adherence, a 2-active combination experiment was carried out in vitro. 21 data points were used for dose and effect, including 4 concentrations for betaine, 7 concentrations for roselle extract and their combination as below (Table 1). Cells were treated with the combination of these actives for 48 hrs (Separately diluted with cell culture medium, followed by mixing together to treat cells). Then cells were washed with Dulbecco's phosphate buffered saline (DPBS) twice, and then incubated in medium with 10% alamarBlue™ Cell Viability Reagent (Thermo Fisher, Waltham, MA, USA) for 120 minutes. The incubated plates were measured for fluorescence using a Perkin Elmer plate reader (VICTOR Nivo), at Ex 530 nm/Em 615 nm. The value are recorded as RFU value.
The protective effect can be determined by Cell viability ratio (%) and Cell protection rate (%) as follows.
According to the theory proposed by Chou and Talalay (TING-CHAO CHOU. Theoretical Basis, Experimental Design, and Computerized Simulation of Synergism and Antagonism in Drug Combination Studies. Pharmacol Rev 58:621-681, 2006), the level of synergism can be typically measured and quantified by the drug combination index (CI, a quantitative measure of drug combination effects) from experimental dose-response data. The concentration of each compound, the protection ratio of each compound or the combo of these two compounds data were input into computer for automated analysis using CalcuSyn software. […]
Experiments were conducted at four levels of betaine and seven levels of roselle extract. […] Synergy value is classified based on the calculated combination index.

In the case of C[N+](C)(C)CC(=O)[O-] [Betaine, trimethylglycine], the “Protective Ratio (%)” value (betaine 0.03% alone) is reported as 8.924%, the “Protective Ratio (%)” value (betaine 0.06% alone) is reported as 19.658% and the “Protective Ratio (%)” value (betaine 0.09% alone) is reported as 15.259%. The “Protective Ratio (%)” value (betaine 0.1% alone) was 17.451%.
